Results published in ChEMBL document CHEMBL2401610, “N-Benzyloxycarbonyl-S-(2,4-dinitrophenyl)glutathione dibutyl diester is inhibitory to melarsoprol resistant cell lines overexpressing the T. bruceiMRPA transporter” (Bioorg Med Chem Lett, 2013).

Columns and labels:
[1] = system: Trypanosoma brucei brucei; assay: Resistant factor, ratio of IC50 for bloodstream form of Trypanosoma brucei brucei expressing TbMRPA protein to IC50 for bloodstream form of wild type Trypanosoma brucei 247; type: functional
[2] = system: Trypanosoma brucei brucei; assay: Antitrypanosomal activity against bloodstream form of Trypanosoma brucei brucei expressing TbMRPA protein after 3 days by microplate assay; type: functional, organism-based; settings: 72 h
[3] = system: Trypanosoma brucei brucei; assay: Antitrypanosomal activity against bloodstream form of wild type Trypanosoma brucei brucei 247 after 3 days by microplate assay; type: functional, organism-based; settings: Trypanosoma brucei, 247, 72 h

In the case of CCCCOC(=O)CNC(=O)[C@H](CSc1ccc([N+](=O)[O-])cc1[N+](=O)[O-])NC(=O)CC[C@H](NC(=O)OCc1ccccc1)C(=O)OCCCC, the “Ratio IC50” value [1] is reported as 1.4, the IC50 [2] is reported as 6.5 µM and the IC50 [3] is reported as 4.5 µM.
With COC(=O)CNC(=O)[C@H](CSC(=O)c1ccc(Br)cc1)NC(=O)CC[C@H](NC(=O)OCc1ccccc1)C(=O)OC the “Ratio IC50” value [1] was 16.6, the IC50 [2] was 58 µM and the IC50 [3] was 3.5 µM.
With O=C(O)CNC(=O)[C@H](CSC(=O)c1ccc(Br)cc1)NC(=O)CC[C@H](NC(=O)OCc1ccccc1)C(=O)O the “Ratio IC50” value [1] was 182, the IC50 [2] was 785 µM and the IC50 [3] was 4.3 µM.
In the case of N[C@@H](CCC(=O)N[C@@H](CSC(=O)c1ccc(Br)cc1)C(=O)NCC(=O)O)C(=O)O, the “Ratio IC50” value [1] is reported as 1.8, the IC50 [2] is reported as 163 µM and the IC50 [3] is reported as 87.5 µM.
With Nc1nc(N)nc(Nc2ccc([As]3SCC(CO)S3)cc2)n1 (stereo not drawn) [MELARSOPROL] the “Ratio IC50” value [1] was 10.
